Laboratory results published in patent US20110092367A1, “Herbicidal Compositions Comprising 4-amino-3,6-dichloropyridine-2-carboxylic Acid” (BASF SE, priority 2008, published 2011).

Columns and labels:
Format in all cases: in vivo
[1] = tested on: Matricaria chamomilla; experiment: Greenhouse trial, post-emergence: MATCH; details: read-out: % activity, MATCH
Protocol: The test plants have been seeded, separately for each species, in plastic containers in sandy loamy soil containing 5% organic matter.
For the post emergence treatment, the plants were first grown to the 2 leaf station (GS 12). Here, the herbicidal compositions were suspended or emulsified in water as distribution medium and sprayed using finely distributing nozzels.
The plants have been cultivated due to there individual requirements at 10-25° C. and 20-35° C. The plants were irrigated due to there necessity.
In the following experiments, the herbicidal activity for the individual herbicide compounds (solo and mixture applications), the herbicidal succession was assessed 14 days after treatment (DAT).
(§1) The evaluation for the damage on undesired weeds caused by the chemical compositions was carried out using a scale from 0 to 100%, compared to the untreated control plants. Here, 0 means no damage and 100 means complete destruction of the plants.
Calculation of expected activity of binary mixtures was done by using the Colby-Formula according to Example 1.
E=(X+Y+Z)−(X*Y+X*Z+Y*Z/100)+(X*Y*Z/1000)
Tables 6 to 10 relate to the herbicidal activity, in greenhouse trials, of the individual actives and the combination in post-emergence application 14 DAT.

[2] = tested on: Alopecurus myosuroides; experiment: Field trial Example 2, combined application: ALOMY; details: Aminopyralid 7.5 g ai/ha solo, 28 DAT
Protocol: (§2) Aminiopyralid was used as commercial aquaeous solution having an active ingredient concentration of 240 g/l (Milestone™). Metazachlor was used as a commercial suspension concentrate having an active ingredient concentration of 500 g/l (Butisan S®).
as §1
The value E, which is to be expected if the activity of the individual compounds is just additive, was calculated using the method of S. R. Colby (1967) “Calculating synergistic and antagonistic responses of herbicide combinations”, Weeds 15, p. 22 ff.
The performance of aminopyralid, applied as an alone treatment at […] and 15 g ai/ha, and the performance of metazachlor, applied as an alone treatment at 375 and 500 g ai/ha, as well as the mixtures of the both compounds have been assessed in winter oilseed rape field trials. The trials have been conducted in Germany at two locations.
Post emergence treatment was applied by means of fine distributed nozzels at the growth stage (GS/BBCH 11/12).

[3] = tested on: Veronica persica; experiment: Field trial Example 1, successive application: damage on VERPE
Text: as §2
The performance of aminopyralid applied as an alone treatment at 15, 30 and 50 g a.i./ha applied as an early post emergence treatment and an post emergence treatment in comparison to two different applications including metazachlor at 500 g a.i./ha as an early post emergence application in succession of aminopyralid as a post emergence application at 15 and 30 g a.i./ha was assessed in an oilseed rape field trials.
The early post emergence treatment was applied by means of fine distributed nozzles at the growth stage (GS) of the crop BBCH 11-12.
The post emergence treatment was applied by means of fine distributed nozzles at the growth stage (GS) of the crop BBCH 13-14.
The test period extended over the autumn and spring season (205 days).
In the following experiments, the herbicidal activity for the individual herbicide compounds (solo application) and of the herbicidal succession was assessed 4 times:
as §1

## Nc1cc(Cl)nc(C(=O)O)c1Cl [aminopyralid, 4-amino-3,6-dichloropyridine-2-carboxylic acid]
[1]
  inhibition at 5 g/ha: 75%
  inhibition at 10 g/ha: 85%
[2]
  % activity: 60%
[3]; 15 g ai/ha, treatment A early post emergence, DAT 25/DALT 10
  damage on VERPE: 0%
[3]; 15 g ai/ha, treatment A early post emergence, DAT 65/DALT 50
  damage on VERPE: 0%
[3]; 15 g ai/ha, treatment A early post emergence, DAT 176/DALT 161
  damage on VERPE: 0%
[3]; 15 g ai/ha, treatment B post emergence, DAT 25/DALT 10
  damage on VERPE: 0%
[3]; 15 g ai/ha, treatment B post emergence, DAT 65/DALT 50
  damage on VERPE: 0%
[3]; 15 g ai/ha, treatment B post emergence, DAT 176/DALT 161
  damage on VERPE: 12%
[3]; 30 g ai/ha, treatment A early post emergence, DAT 25/DALT 10
  damage on VERPE: 23%
[3]; 30 g ai/ha, treatment A early post emergence, DAT 65/DALT 50
  damage on VERPE: 13%
[3]; 30 g ai/ha, treatment A early post emergence, DAT 176/DALT 161
  damage on VERPE: 12%
[3]; 30 g ai/ha, treatment B post emergence, DAT 25/DALT 10
  damage on VERPE: 0%
[3]; 30 g ai/ha, treatment B post emergence, DAT 65/DALT 50
  damage on VERPE: 0%
[3]; 30 g ai/ha, treatment B post emergence, DAT 176/DALT 161
  damage on VERPE: 10%
[3]; 50 g ai/ha, treatment A early post emergence, DAT 25/DALT 10
  damage on VERPE: 73%
[3]; 50 g ai/ha, treatment A early post emergence, DAT 65/DALT 50
  damage on VERPE: 50%
[3]; 50 g ai/ha, treatment A early post emergence, DAT 176/DALT 161
  damage on VERPE: 50%
[3]; 50 g ai/ha, treatment B post emergence, DAT 25/DALT 10
  damage on VERPE: 13%
[3]; 50 g ai/ha, treatment B post emergence, DAT 65/DALT 50
  damage on VERPE: 20%
[3]; 50 g ai/ha, treatment B post emergence, DAT 176/DALT 161
  damage on VERPE: 30%
[3]; aminopyralid 15 g ai/ha, treatment A, DAT 205/DALT 190
  damage on VERPE: 0%
[3]; aminopyralid 15 g ai/ha, treatment B, DAT 205/DALT 190
  damage on VERPE: 18%
[3]; aminopyralid 30 g ai/ha, treatment A, DAT 205/DALT 190
  damage on VERPE: 12%
[3]; aminopyralid 30 g ai/ha, treatment B, DAT 205/DALT 190
  damage on VERPE: 12%
[3]; aminopyralid 50 g ai/ha, treatment A, DAT 205/DALT 190
  damage on VERPE: 48%
[3]; aminopyralid 50 g ai/ha, treatment B, DAT 205/DALT 190
  damage on VERPE: 33%
